Measurements reported in patent US7160898B2, “Pharmacological treatment for sleep apnea” (Board of Trustees of The University of Illinois, priority 2002, dated 2007).
Entries after “also recorded” stand apart in the source; their conditions may differ.

Tests used:
[1] = tested on: rat model of spontaneous sleep apnea; assay: Spontaneous sleep apnea in freely moving rats after GR38032F (Example 2); type: in vivo, rat (Sprague-Dawley); settings: 1 mg/kg i.p.
Procedure: Adult, male Sprague-Dawley rats (Sasco-King, Wilmington, Mass.; usually 8 per test group; 300 g) were maintained on a 12-hour light (08:00–20:00 hour)/12-hour dark (20:00–08:00 hour) cycle for one week, housed in individual cages and given ad libitum access to food and water. Following the one week of acclimatization, animals were subjected to the following surgical procedures.
Acclimatized animals were anesthetized for the implantation of cortical electrodes for electroencephalogram (EEG) recording and neck muscle electrodes for electromyogram (EMG) recording using a mixture of ketamine (Vedco, Inc., St. Joseph, Mo.; 100 mg/ml) and acetylpromazine (Vedco, Inc., St. Joseph, Mo.; 10 mg/ml; 4:1, volume/volume) at a volume of 1 ml/kg body weight. The surface of the skull was exposed surgically and cleaned with a 20% solution of hydrogen peroxide followed by a solution of 95% isopropyl alcohol. Next, a dental preparation of sodium fluoride (Flura-GEL®, Saslow Dental, Mt. Prospect, Ill.) was applied to harden the skull above the parietal cortex and allowed to remain in place for 5 minutes. The fluoride mixture was then removed from the skull above the parietal cortex. The EEG electrodes consisting of four stainless steel machine screws, having leads attached thereto, were threaded into the skull to rest on the dura over the parietal cortex. A thin layer of Justi® resin cement (Saslow Dental, Mt. Prospect, Ill.) was applied to cover the screw heads (of screws implanted in the skull) and surrounding skull to further promote the adhesion of the implant. EMG electrodes consisting of two ball-shaped wires were inserted into the bilateral neck musculature. All leads (i.e., EEG and EMG leads) were soldered to a miniature connector (39F1401, Newark Electronics, Schaumburg, Ill.). Lastly, the entire assembly was fixed to the skull with dental cement.
After surgery, all animals were allowed to recover for one week before being subjected to another surgery that involved implantation of a radiotelemetry transmitter (TA11-PXT, Data Sciences International, St. Paul, Minn.) for monitoring blood pressure (BP) and heart period (HP), estimated as pulse interval. After the animals were anesthetized (as described above), the hair from the subxiphoid space to the pelvis was removed. The entire area was scrubbed with iodine and rinsed with alcohol and saline. A 4–6 cm midline abdominal incision was made to allow good visualization of the area from the bifurcation of the aorta to the renal arteries. A retractor was used to expose the contents of the abdomen and the intestine was held back using saline moistened gauze sponges. The aorta was dissected from the surrounding fat and connective tissues using sterile cotton applicators. A 3-0 silk suture was placed beneath the aorta and traction was applied to the suture to restrict the blood flow. Then the implant (TA11-PXT) was held by forceps while the aorta was punctured just cranial to the bifurcation using a 21-gauge needle bent at the beveled end. The tip of the catheter was inserted under the needle using the needle as a guide until the thin-walled BP sensor section was within the vessel. […]
Physiological parameters (see below) from each animal were recorded on 2 occasions in random order, with recordings for an individual animal separated for at least 3 days. […]

NREM and REM sleep = assay: Sleep/wake staging by EEG/EMG after GR38032F (Example 2); type: in vivo, rat (Sprague-Dawley); settings: 1 mg/kg i.p.
Procedure: (§1) Physiological parameters (see below) from each animal were recorded on 2 occasions in random order, with recordings for an individual animal separated for at least 3 days. Fifteen minutes prior to each recording each animal received a systemic injection (1 ml/kg intraperitoneal bolus injection) of either saline (control) or 1 mg/kg of ondansetron (GR38032F; 1,2,3,9-tetrahydro-9-methyl-3-[(2-methylimidazol-1-yl)methyl]carbazole-4-one, hydrochloride, dihydrate; Glaxo Wellcome, Inc., Research Triangle Park, N.C.). Polygraphic recordings were made from hours 10:00–16:00.
Respiration was recorded by placing each animal, unrestrained, inside a single chamber plethysmograph (PLYUNIR/U; Buxco Electronics, Sharon, Conn.; dimension 6 in.×10 in.×6 in.) ventilated with a bias flow of fresh room air at a rate of 2 L/min. A cable plugged onto the animal's connector and passed through a sealed port was used to carry the bioelectrical activity from the head implant.
Sleep and waking states were assessed using the biparietal EEG and nuchal EMG signals on 10-second epochs as described by Bennington et al. [Sleep, 17:28–36 (1994)]. […] Sleep efficiency was measured as the percentage of total recorded epochs staged as NREM or REM sleep.

[2] = tested on: 5-hydroxytryptamine receptors; settings: anesthetized animals; cited from earlier work
[3] = tested on: normalized minute ventilation; assay: Plethysmographic minute ventilation after GR38032F (Example 2); type: in vivo, rat (Sprague-Dawley); settings: 1 mg/kg i.p., 6 recording hours, vs control; hydrochloride, dihydrate
Procedure: as §1
Respiration was recorded by placing each animal, unrestrained, inside a single chamber plethysmograph (PLYUNIR/U; Buxco Electronics, Sharon, Conn.; dimension 6 in.×10 in.×6 in.) ventilated with a bias flow of fresh room air at a rate of 2 L/min. […]
An accepted physiological animal model [rat; Monti, et al., Pharamcol. […] More specifically, sleep apneas, defined as cessation of respiratory effort for at least 2.5 seconds, were scored for each recording session and were associated with the stage of sleep in which they occurred: NREM or REM sleep. […] The events detected represent central apneas because decreased ventilation associated with obstructed or occluded airways would generate an increased plethysmographic signal, rather than a pause. […]

Cc1nccn1CC1CCc2c(c3ccccc3n2C)C1=O.Cl.O.O (stereo not drawn) [GR38032F, 1,2,3,9-tetrahydro-9-methyl-3-[(2-methylimidazol-1-yl)methyl]carbazole-4-one, hydrochloride, dihydrate]
time for which REM sleep apneas were completely abolished following injection [1]: at least 4 hours | rate of apneas per hour of REM sleep ([1]; 6 hour recording period, p=0.01 2-way ANOVA): significant suppressant effect | rate of apneas per hour of NREM sleep ([1]; first 2 hours of recording, paired t-tests p<0.01): significant suppression of apneas | spontaneous apneas in REM sleep ([1]; first 4 hours of recordings): no animal exhibited a single spontaneous apnea in REM sleep | rate of apneas per hour of NREM sleep ([1]; whole 6 hours of recording, two-way ANOVA vs saline control): no significant effect of treatment or time over 6 hours | percentage of total recording time spent in REM sleep (NREM and REM sleep; 6 hours): did not significantly affect REM sleep | percentage of total recording time spent in NREM sleep (NREM and REM sleep; first 2 hours, p<0.001): significant suppression of NREM sleep | antagonism of agonist-induced transient apnea [2]: significantly antagonized | normalized minute ventilation during W, NREM and REM sleep [3]: significantly larger; also recorded: significant stimulation of ventilation during all behavioral states
